What follows are molecules tested against T1, human CB1 receptor (Homo sapiens, UniProt P21554) (assay: In-vitro determination of efficacy and potency at the human CB1 receptor expressed in CHO cells (luciferase reporter assay)). Details: CHO cells expressing the human CB1 receptor and a luciferase reporter gene; 5 h incubation at 37° C.
T1 construct: expressed in transfected cells; host or cells: CHO (Chinese Hamster Ovary) cells
T1 sequence (P21554 whole entry): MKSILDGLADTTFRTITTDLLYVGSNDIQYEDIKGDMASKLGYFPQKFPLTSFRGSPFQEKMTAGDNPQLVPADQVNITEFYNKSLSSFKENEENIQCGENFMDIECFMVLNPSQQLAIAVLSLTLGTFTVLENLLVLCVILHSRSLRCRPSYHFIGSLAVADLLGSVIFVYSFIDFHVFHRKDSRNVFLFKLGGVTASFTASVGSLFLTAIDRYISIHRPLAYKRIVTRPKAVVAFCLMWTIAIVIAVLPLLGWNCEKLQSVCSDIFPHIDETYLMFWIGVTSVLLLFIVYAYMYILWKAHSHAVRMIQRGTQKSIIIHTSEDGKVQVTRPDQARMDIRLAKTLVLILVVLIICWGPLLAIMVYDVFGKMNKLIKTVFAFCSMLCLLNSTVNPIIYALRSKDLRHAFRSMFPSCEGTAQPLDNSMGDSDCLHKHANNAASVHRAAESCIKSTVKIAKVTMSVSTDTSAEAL
Format: cell-based
Experimental: Methods to determine receptor binding as well as in vitro biological activity of cannabinoid receptor modulators are well known in the art. In general, expressed receptor is contacted with the compound to be tested and binding or stimulation or inhibition of a functional response is measured.
In-Vitro Determination of Efficacy and Potency at the Human CB1 Receptor Expressed in CHO Cells
Chinese Hamster Ovary (CHO) cells expressing the human CB1 receptor and a luciferase reporter gene were suspended in phenol red/serum free DMEM/F-12 nut mix containing penicillin/streptomycin (50 U/50 μg/ml) and fungizone (1 μg/ml) and seeded into 96 well plates at a density of 3×10^4 cells per well (100 μl final volume). Cells were incubated overnight (approx. 18 h at 37° C., 5% CO2/95% air) prior to assay.
The test compound (10 mM solution in dimethylsulfoxide) was diluted in F12 Nut Mix to give a range of stock solutions from 0.11 mM to 0.11 nM. The stock solutions (10 μl) were added directly to the relevant wells. The plates were incubated at 37° C. for 5 h to allow agonist-induced expression of the luciferase enzyme. Under subdued light, LucLite substrate (Packard; reconstituted as per manufacturer's instructions; 100 μl) was added to each well. Plates were covered with Top Seal and then incubated at room temperature for 5 minutes before counting on the Packard TopCount (single photon counting, 0.01 minute count time, 5 minute count delay).
A “best-fit” curve was fitted by a minimum sum of squares method to the plot of counts per second (CPS) against compound concentration (M) to obtain an EC50 value.
`NC(=O)CN1CCCN(Cc2nc(-c3cn(CC4CCOCC4)c4c(Cl)cccc34)no2)CC1` [Example 21d, 3-{5-[4-(Carbamoylmethyl)-homopiperazin-1-ylmethyl]-[1,2,4]-oxadiazol-3-yl}-7-chloro-1-[(tetrahydropyran-4-yl)methyl]-1H-indole] showed an EC50 of 63.1 nM. For `CNC(=O)CN1CCN(Cc2nc(-c3cn(CC4CCOCC4)c4c(Cl)cccc34)no2)C[C@H]1CO` [Example 24, (S)-7-Chloro-3-[5-[3-hydroxymethyl-4-(methylcarbamoylmethyl)piperazin-1-ylmethyl]-[1,2,4]-oxadiazol-3-yl]-1-[(tetrahydropyran-4-yl)methyl]-1H-indole], the EC50 was 12.6 nM. `NC(=O)CN1CCN(Cc2nc(-c3cn(CC4CCOCC4)c4c(Cl)cccc34)no2)CC1` [Example 11, 3-({5-[4-(Carbamoylmethyl)piperazin-1-yl]methyl}-[1,2,4]-oxadiazol-3-yl)-7-chloro-1-(tetrahydropyran-4-yl)methyl-1H-indole] showed an EC50 of 79.4 nM. Work on `CCNC(=O)CN1CCN(Cc2nc(-c3cn(CC4CCOCC4)c4c(Cl)cccc34)ns2)CC1` [Example 3, 7-Chloro-3-({5-[4-(ethylcarbamoyl)methylpiperazin-1-yl]methyl}-[1,2,4]-thiadiazol-3-yl)-1-(tetrahydropyran-4-yl)methyl-1H-indole] yielded an EC50 of 39.8 nM. With `O=S1(=O)CCC(Cn2cc(-c3noc(CN4CCN(Cc5ncon5)CC4)n3)c3cccc(Cl)c32)CC1` [Example 17, 7-Chloro-3-({5-[4-([1,2,4]oxadiazol-3-ylmethyl)piperazin-1-yl]methyl}-[1,2,4]-oxadiazol-3-yl)-1-(1,1-dioxo-hexahydrothiopyran-4-yl)methyl-1H-indole] the EC50 was 158 nM. With `NC(=O)CN1CCN(Cc2csc(-c3cn(CC4CCOCC4)c4c(Cl)cccc34)n2)CC1` [Example 31, 3-({4-[4-(Carbamoylmethyl)piperazin-1-yl]methyl}-[1,3]-thiazol-2-yl)-7-chloro-1-(tetrahydropyran-4-yl)methyl-1H-indole] the EC50 was 63.1 nM. `COc1cccc2c(-c3nsc(CN4CCN(CC(N)=O)CC4)n3)cn(CC3CCOCC3)c12` [Example 7a, 3-({5-[4-(Carbamoylmethyl)piperazin-1-yl]methyl}-[1,2,4]-thiadiazol-3-yl)-7-methoxy-1-(tetrahydropyran-4-yl)methyl-1H-indole] showed an EC50 of 100 nM. `NC(=O)CN1CCN(Cc2nc(-c3cn(CC4CCOCC4)c4c(Cl)cccc34)ns2)CC1` [Example 1, 3-({5-[4-(Carbamoylmethyl)piperazin-1-yl]methyl}-[1,2,4]-thiadiazol-3-yl)-7-chloro-1-(tetrahydropyran-4-yl)methyl-1H-indole] gave an EC50 of 15.8 nM. `CCc1cccc2c(-c3nsc(CN4CCN(CC(=O)NC(C)C)CC4)n3)cn(CC3CCOCC3)c12` [Example 6b, 7-Ethyl-3-({5-[4-(N-isopropylcarbamoyl)methylpiperazin-1-yl]methyl}-[1,2,4]-thiadiazol-3-yl)-1-(tetrahydropyran-4-yl)methyl-1H-indole] showed an EC50 of 50.1 nM. In the case of `CCc1cccc2c(-c3nsc(CN4CCN(CC(=O)OC)CC4)n3)cn(CC3CCOCC3)c12` [Example 6d, 7-Ethyl-3-({5-[4-(methoxycarbonylmethyl)piperazin-1-yl]methyl}-[1,2,4]-thiadiazol-3-yl)-1-(tetrahydropyran-4-yl)methyl-1H-indole], the EC50 is reported as 63.1 nM.
